Assay [1] concerns Thy-1-induced nephritis models. Particulars: prophylactic administration before induction of nephritis; cited from earlier work.
In assay [2] the test system is HUS. Particulars: one case of HUS; cited from earlier work.
In assay [3] the test system is cats with chronic renal failure. As to the kind of experiment: Blood biochemical analysis and urinalysis (BUN, serum Cre, glucose) in cats with chronic renal failure. The format is in vivo, cat. Particulars: Case-F, male cat 11 y, diabetic nephropathy; protamine zinc insulin 2 units/BID, 2 months. The protocol:
Testing methods for the patients showing uremia caused by chronic renal failure, employed in Example 4 or later, will now be described. The criteria and evaluation items for the cats and dogs with chronic renal failure are as follows: Diagnosis of uremia and chronic renal failure were performed totally taking clinical findings (including findings of uremia) and the results of the blood test, blood biochemical analysis and urinalysis into consideration. As the clinical findings of uremia, existence and degree of polydipsia and diuresis, dehydration, anorexia, weight loss, vomiting symptom and state of dehydration were observed. Existence of chronic renal failure was judged based on the serum Cre value as generally employed. As reference data for grasping the degree of progress of chronic renal failure, BUN value was also monitored.
In the blood test, RBC, WBC, PCV, Hg and PLT were measured. In the blood biochemical analysis, TP, Tcho, AST, ALT, ALP, Tbil, BUN, creatinine, calcium, inorganic phosphorus, glucose, sodium ion, potassium ion and chloride ion were measured. In the urinalysis, protein amount, pH, occult blood, bilirubin and glucose were measured. To eliminate the circadian rhythm and influence by meals on the values of blood biochemical markers, every blood collection was carried out in the morning before feeding (at fasting).
As a more specific criterion for chronic renal failure in cats and dogs in the present Examples, a serum Cre value of 1.4 mg/dL in the blood test was employed. Serum Cre value was measured by creatinine deaminase-amidohydrolase method, and the BUN value as reference data for grasping the degree of progress of chronic renal failure was measured by urease-GLDH method.
Administration of beraprost sodium was conducted by orally administering the tablet with a content of 150 μg/tablet (Example 1) twice a day (300 μg/head/day). The administration was conducted every day and continued basically for 6 months, and in cases where the owner desired, the administration was continued even after the test period. The Examples of the present invention include both cases where the dosing period was less than 6 months and more than 6 months.

For assay [4], the system named is HUS. The following applies: in vivo; cited from earlier work.
Assay [5] concerns streptozotocin-induced diabetic nephropathy rats. Particulars: cited from earlier work.
Assay [6] has as its system renal function impairment induced by uninephrectomy, high sodium loading and protein loading. Particulars: cited from earlier work.

On to `CC#CCC(C)[C@H](O)/C=C/[C@@H]1[C@H]2C/C(=C/CCCC(=O)O)C[C@H]2C[C@H]1O` (stereo partly drawn) [iloprost], for which the urinary protein entry in assay [1] was “decreased”. Besides, the “improvement of the serum Cre value” in assay [2] is reported as “effective”.

“insulin: protamine zinc insulin for treating diabetes”: in assay [3], the fasting blood glucose was 100 mg/dL.

Take `CCCCC[C@H](O)/C=C/[C@@H]1[C@H]2C/C(=C/CCCC(=O)O)O[C@H]2C[C@H]1O` [PGI2, prostaglandin I2]: the “progress of HUS” value in assay [4] is reported as “does not have an activity to inhibit the progress of HUS”.

Consider `CCC#CC[C@H](C)[C@H](O)C#C[C@@H]1[C@H]2C/C(=C/COCC(=O)O)C[C@H]2C[C@H]1O` [cicaprost], for which the renal function impairment entry in assay [5] and in assay [6] was “activity to reduce the renal function impairment” in each case.

These data come from US9783518B2, “Therapeutic agent and treatment method for ameliorating uremia” (Toray Industries, Inc., priority 2005, dated 2017).
